Data reported in patent US20240374618A1, “COMPOSITION OF TANNIC ACID AND VITAMIN D AND METHODS OF USE” (Nulastin, Inc., priority 2021, published 2024).

Tests used:
human dermal fibroblasts = experiment: Immunodetection of elastin in cultured human dermal fibroblasts; assay type: cell-based; conditions: for elastin concentration: FIGS. 1A-1C
Protocol: Biological effects of tannic acid in the presence of hyaluronic acid or ferulic acid were tested on dermal fibroblasts derived from punch biopsies of healthy skin. All fibroblasts were isolated by allowing migration out of skin explants and passaged by trypsinization. Fibroblasts were maintained in alpha-minimum essential medium supplemented with 20 mM HEPES, 1% antibiotics and antimycotics, 1% L-Glutamate and 2% fetal bovine serum (FBS). Cells were plated (50×10^5 cells/dish) to reach confluency and were cultured for 7 days in the presence or absence of hyaluronic acid (0.1%), ferulic acid (5 μg/mL), tannic acid (2 μg/mL), or a combination thereof.
Cell cultures prepared according to Example 1 maintained in the presence or absence of tannic acid, hyaluronic acid, or ferulic acid were fixed in cold 100% methanol at […] for detection of elastin or in 4% paraformaldehyde at room temperature for detection of collagen I. The multiple parallel cultures were incubated with […] of polyclonal antibody to tropoelastin (Elastin Products, Owensville, MI), or polyclonal antibody to collagen type I (Chemicon, Temecula, CA). Cultures were incubated with the respective fluorescein-conjugated goat anti-rabbit, goat anti-mouse, or rabbit anti-goat secondary antibodies. Nuclei were counter stained with propidium iodide (Sigma, St. Louis, MO). All cultures were examined with a Nikon Eclipse E1000 microscope attached to a cooled CCD camera (QImaging, Retiga EX) and analyzed with the computer-generated morphometric analysis system, in which the Image-Pro Plus software (Media Cybernetics, Silver Springs, MD) estimates the proportion of areas marked with green fluorescence, in relation to the entire (1 square mm) analyzed field.
Cultured human dermal fibroblasts were grown in the presence or absence of tannic acid at low concentration (2 μg/mL) and high concentration (20 μg/mL). Immunodetection of elastin was performed as described in Example 2.
(§1) Cultured human dermal fibroblasts were grown in the presence of or absence of vitamin D (10^−7 M), tannic acid ([…]), or a combination of vitamin D and tannic acid (2 μg/mL) (FIGS. 2A-2B and FIGS. 3A-3C). Immunodetection of elastin was performed as described above.
Cultured human dermal fibroblasts were grown in the presence of or absence hyaluronic acid (0.1%), tannic acid (2 μg/mL), or a combination of hyaluronic acid (0.1%) and tannic acid (2 μg/mL). Immunodetection of elastin was performed as described above.
Cultured human dermal fibroblasts were grown in the presence or absence of ferulic acid (5 μg/mL), tannic acid (2 μg/mL), or a combination of ferulic acid (5 μg/mL) and tannic acid (2 μg/mL). Immunodetection of elastin and collagen I was performed as described above. Results are shown in FIGS. 5A-5C, and FIGS. 6A-6B for elastin and FIGS. 7A-7C and FIG. 8 for collagen.
Cultured human dermal fibroblasts were grown in the presence or absence of ferulic acid (20 μM), tannic acid (2 μg/mL), or copper sulfate (2 μM). Fibroblasts were also grown in presence of a combination of ferulic acid (20 μM) and copper sulfate (2 μM), a combination of ferulic acid (20 μM) and tannic acid (2 μg/mL), and a combination of tannic acid (2 μg/mL) and copper sulfate (2 μM). Immunodetection of elastin was performed as described above.

fibroblast cultures = experiment: Amount of tropoelastin in fibroblast cultures measured using PCR; assay type: cell-based, human; conditions: tannic acid added to cultures that contained vitamin D3; PCR after 18 hours; FIG. 2A
Protocol: FIG. 2A depicts the amount of tropoelastin in fibroblast cultures measured using PCR after 18 hours.
as §1

## O=C(OC[C@H]1O[C@@H](OC(=O)c2cc(O)c(O)c(OC(=O)c3cc(O)c(O)c(O)c3)c2)[C@H](OC(=O)c2cc(O)c(O)c(OC(=O)c3cc(O)c(O)c(O)c3)c2)[C@@H](OC(=O)c2cc(O)c(O)c(OC(=O)c3cc(O)c(O)c(O)c3)c2)[C@@H]1OC(=O)c1cc(O)c(O)c(OC(=O)c2cc(O)c(O)c(O)c2)c1)c1cc(O)c(O)c(OC(=O)c2cc(O)c(O)c(O)c2)c1 [tannic acid]
Human dermal fibroblasts; tannic acid (2 μg/mL) added to hyaluronic acid (0.1%)
  net deposition of elastin: improvement in net deposition of elastin
Human dermal fibroblasts; tannic acid (2 μg/mL) added to vitamin D (10^−7 M)
  net deposition of elastin: improvement in net deposition of elastin
Human dermal fibroblasts; tannic acid (2 μg/mL) in the presence of ferulic acid (5 μg/mL)
  production of elastin: improved production of elastin even in the presence of ferulic acid
Human dermal fibroblasts; tannic acid at high concentration (20 μg/mL)
  elastin concentration: caused elastosis
Human dermal fibroblasts; tannic acid at low concentration (2 μg/mL)
  elastin concentration: improved elastin concentration
Fibroblast cultures
  amount of tropoelastin: increased the amount of tropoelastin

## hyaluronic acid
Human dermal fibroblasts; hyaluronic acid (0.1%) alone
  elastin production: inhibition of elastin production

## vitamin D
Human dermal fibroblasts; vitamin D (10^−7 M) alone
  elastin production: inhibition of elastin production
